Our source for the Activity and IC50 values is ChEMBL document CHEMBL1141170, “Rational approach to discover multipotent anti-Alzheimer drugs” (J Med Chem, 2005).

The IC50 is the midpoint of a concentration-inhibition curve.

The species entered for assay [1] is Homo sapiens. Briefly: Percentage increase of intracellular reactive oxygen species in neuronal cells at 0 uM. Type of assay: functional.
Assay [2] is filed under the species Homo sapiens. As to the kind of experiment: Percentage increase of intracellular reactive oxygen species in neuronal cells at 1 uM. Type of assay: functional.
For assay [3], the species on record is Homo sapiens. Briefly: Percentage increase of intracellular reactive oxygen species in neuronal cells at 5 uM. Type of assay: functional.
For assay [4], the species on record is Homo sapiens. As to the kind of experiment: Percentage increase of intracellular reactive oxygen species in neuronal cells at 10 uM; Cytotoxicity. Type of assay: functional.
For assay [5], the species on record is Homo sapiens. As to the kind of experiment: Percentage increase of intracellular reactive oxygen species in neuronal cells at 50 uM; Cytotoxicity. Type of assay: functional.
The species named for assay [6] is Homo sapiens. Briefly: Percentage increase of intracellular reactive oxygen species in neuronal cells at 0.5 uM. Type of assay: functional.
The species named for assay [7] is Homo sapiens. Briefly: Percentage increase of intracellular reactive oxygen species in neuronal cells at 0.1 uM. Type of assay: functional.
The target of assay [8] is Cholinesterase (Homo sapiens, UniProt P06276).
Description: Inhibitory concentration against human recombinant butyrylcholinesterase
The species entered for assay [9] is Homo sapiens. Briefly: Percentage increase of intracellular reactive oxygen species in neuronal cells at 10 uM. Type of assay: functional.
The species entered for assay [10] is Homo sapiens. As to the kind of experiment: Percentage increase of intracellular reactive oxygen species in neuronal cells at 50 uM. Type of assay: functional.
For assay [11], the target named is Acetylcholinesterase (Homo sapiens, UniProt P22303).
Acetylcholinesterase, sequence (P22303 whole entry): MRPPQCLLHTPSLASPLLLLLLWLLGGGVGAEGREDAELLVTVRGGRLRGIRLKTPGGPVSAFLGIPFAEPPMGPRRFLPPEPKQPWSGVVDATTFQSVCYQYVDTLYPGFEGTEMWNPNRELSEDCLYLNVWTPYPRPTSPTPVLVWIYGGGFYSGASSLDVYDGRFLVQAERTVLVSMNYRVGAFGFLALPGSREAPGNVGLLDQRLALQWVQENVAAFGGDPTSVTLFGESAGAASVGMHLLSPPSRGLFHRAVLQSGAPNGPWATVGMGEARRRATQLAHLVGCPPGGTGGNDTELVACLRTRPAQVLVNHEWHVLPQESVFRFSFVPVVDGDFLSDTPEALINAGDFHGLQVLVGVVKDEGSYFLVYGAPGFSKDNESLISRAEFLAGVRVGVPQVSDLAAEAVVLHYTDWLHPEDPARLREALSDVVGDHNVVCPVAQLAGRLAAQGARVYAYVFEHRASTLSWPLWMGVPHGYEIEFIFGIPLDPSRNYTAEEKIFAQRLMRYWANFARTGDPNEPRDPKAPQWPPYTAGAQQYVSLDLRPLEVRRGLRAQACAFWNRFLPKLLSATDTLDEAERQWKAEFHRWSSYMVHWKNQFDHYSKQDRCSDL
Description: Inhibitory concentration against human recombinant acetylcholinesterase

Cholinesterase, sequence (P06276 whole entry): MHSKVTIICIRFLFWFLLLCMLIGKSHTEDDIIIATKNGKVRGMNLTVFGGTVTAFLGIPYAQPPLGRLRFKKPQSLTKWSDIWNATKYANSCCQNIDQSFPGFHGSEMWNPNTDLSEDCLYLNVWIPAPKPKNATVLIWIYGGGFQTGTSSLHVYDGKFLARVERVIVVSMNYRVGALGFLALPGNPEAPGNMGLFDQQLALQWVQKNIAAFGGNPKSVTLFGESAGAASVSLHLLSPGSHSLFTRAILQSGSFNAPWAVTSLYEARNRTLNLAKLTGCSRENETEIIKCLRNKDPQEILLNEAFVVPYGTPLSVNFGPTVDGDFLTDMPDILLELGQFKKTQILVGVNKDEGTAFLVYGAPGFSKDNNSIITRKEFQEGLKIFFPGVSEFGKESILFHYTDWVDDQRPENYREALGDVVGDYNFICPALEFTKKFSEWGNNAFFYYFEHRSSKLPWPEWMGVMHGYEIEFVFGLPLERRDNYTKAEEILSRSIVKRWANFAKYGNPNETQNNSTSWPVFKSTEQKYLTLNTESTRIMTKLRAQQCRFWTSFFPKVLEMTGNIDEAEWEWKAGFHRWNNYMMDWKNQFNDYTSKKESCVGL

As for `NCCCNc1c2c(nc3cc(Cl)ccc13)CCCC2`, the Activity in assay [1] was 86%; in assay [2], 96.67%; in assay [3], 82.5%; in assay [4], “Toxic”; in assay [5], “Toxic”; in assay [6], 99.67%. The compound further gave an Activity in assay [7] of 99.5%. Further, in [8], the IC50 came out at 2580 nM.

For `O=C(CCCCC1CCSS1)NCCCNc1c2c(nc3cc(Cl)ccc13)CCCC2` (racemic) [LIPOCRINE], the Activity in assay [1] amounted to 86%; in [2], 77%; in assay [3], 61.67%; in assay [6], 95%; in assay [9], 51.25%; in assay [10] it was 30.5%. The compound also showed an Activity in [7] of 88.75%.

`Nc1c2c(nc3cc(Cl)ccc13)CC(CNC(=O)CCCCC1CCSS1)CC2` (configuration not stated): the figures for the IC50 in assay [11] and in [8] were 1090 nM and 329 nM, respectively.
